Assay results reported in PubChem BioAssay AID1963959 (Molecular Pharmacology Branch, DTP, NCI, 2024).

Test system: T-47D spheroids with HUVEC/MSC, viability
Assay: Anticancer human tumor T-47D cell line growth inhibition [PI3K];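 further: spheroids exposed to agents for seven days before reading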;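 on viability, T/C: percent of DMSO vehicle control luminescence so 100% = untreated growth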
Conditions: for IC50: curve of first compound; for viability, T/C: stronger effect = lower value; active means viability on the fitted dose curve at most 10% of control; inactive means the rest
Summary of the method: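 Three cell types, namely tumor cells, endothelial cells and mesenchymal stem cells, formed each spheroid. Combinations with four PI3K inhibitors were screened at clinically achievable concentrations decreasing by half-log, and spheroid viability was recorded.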

CC1(C)CCC(Nc2ncc(C(F)(F)F)c(-c3c[nH]c4c(P(C)(C)=O)c(C#N)ccc34)n2)CN1 (configuration not stated) + CC(Nc1ncnc2nc[nH]c12)c1cc2cccc(Cl)c2c(=O)n1-c1ccccc1
4.1 µM: IC50 (second compound 10 µM)
inactive: viability, T/C (second compound 0.0316 µM, first compound 0.0316 µM) 73.3% | viability, T/C (second compound 0.0316 µM, first compound 0.1 µM) 62.5% | viability, T/C (second compound 0.0316 µM, first compound 0.316 µM) 67.2% | viability, T/C (second compound 0.0316 µM, first compound 1 µM) 71.9% | viability, T/C (second compound 0.0316 µM, first compound 3.16 µM) 76.9% | viability, T/C (second compound 0.0316 µM, first compound 10 µM) 48.4% | viability, T/C (second compound 0.1 µM, first compound 0.0316 µM) 72.9% | viability, T/C (second compound 0.1 µM, first compound 0.1 µM) 69.9% | viability, T/C (second compound 0.1 µM, first compound 0.316 µM) 69.7% | viability, T/C (second compound 0.1 µM, first compound 1 µM) 59.8% | viability, T/C (second compound 0.1 µM, first compound 3.16 µM) 78.2% | viability, T/C (second compound 0.1 µM, first compound 10 µM) 48.6% | viability, T/C (second compound 0.316 µM, first compound 0.0316 µM) 60.4% | viability, T/C (second compound 0.316 µM, first compound 0.1 µM) 70.9% | viability, T/C (second compound 0.316 µM, first compound 0.316 µM) 66% | viability, T/C (second compound 0.316 µM, first compound 1 µM) 64.6% | viability, T/C (second compound 0.316 µM, first compound 3.16 µM) 75.5% | viability, T/C (second compound 0.316 µM, first compound 10 µM) 51% | viability, T/C (second compound 1 µM, first compound 0.0316 µM) 62.2% | viability, T/C (second compound 1 µM, first compound 0.1 µM) 63.5% | viability, T/C (second compound 1 µM, first compound 0.316 µM) 69.6% | viability, T/C (second compound 1 µM, first compound 1 µM) 57.6% | viability, T/C (second compound 1 µM, first compound 3.16 µM) 64.2% | viability, T/C (second compound 1 µM, first compound 10 µM) 47.1% | viability, T/C (second compound 3.16 µM, first compound 0.0316 µM) 57.5% | viability, T/C (second compound 3.16 µM, first compound 0.1 µM) 60.3% | viability, T/C (second compound 3.16 µM, first compound 0.316 µM) 66.4% | viability, T/C (second compound 3.16 µM, first compound 1 µM) 60% | viability, T/C (second compound 3.16 µM, first compound 3.16 µM) 66.8% | viability, T/C (second compound 3.16 µM, first compound 10 µM) 40.5% | viability, T/C (second compound 10 µM, first compound 0.0316 µM) 47.4% | viability, T/C (second compound 10 µM, first compound 0.1 µM) 60.1% | viability, T/C (second compound 10 µM, first compound 0.316 µM) 64.6% | viability, T/C (second compound 10 µM, first compound 1 µM) 51.7% | viability, T/C (second compound 10 µM, first compound 3.16 µM) 57.2% | viability, T/C (second compound 10 µM, first compound 10 µM) 29%
> 10 µM: IC50 (second compound 0.0316 µM) | IC50 (second compound 0.1 µM) | IC50 (second compound 0.316 µM) | IC50 (second compound 1 µM) | IC50 (second compound 3.16 µM)
